Data as given in ChEMBL document CHEMBL1201862, “PubChem BioAssay data set” (2004).
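Each compound was tested at five concentrations against cells in 96-well plates for 48 hours. Here, GI50 denotes the concentration required for 50% inhibition of growth.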 Activity calls are given as the source filed them. Rule as the data show it: active = GI50 up to about 1.1 µM and inactive = higher.

Assays:
Test in all cases: NCI anticancer screen, dose series, 48 h
[1] = test system: EKVX
[2] = test system: PC-3
[3] = test system: Hs-578T
[4] = test system: RXF 393
[5] = test system: OVCAR-3
[6] = test system: MCF7
[7] = test system: SK-OV-3
[8] = test system: UACC-257
[9] = test system: M14
[10] = test system: NCI-H522
[11] = test system: COLO 205
[12] = test system: LOX IMVI
[13] = test system: SN12C
[14] = test system: CCRF-CEM
[15] = test system: SF-539
[16] = test system: SK-MEL-28
[17] = test system: Malme-3M
[18] = test system: SNB-75
[19] = test system: OVCAR-8
[20] = test system: OVCAR-4
[21] = test system: KM12
[22] = test system: A549
[23] = test system: 786-0
[24] = test system: NCI-H460
[25] = test system: SNB-19
[26] = test system: HCT-116
[27] = test system: NCI-H23
[28] = test system: HCC 2998
[29] = test system: SF-268
[30] = test system: HL-60
[31] = test system: MOLT-4
[32] = test system: SK-MEL-5
[33] = test system: HOP-92
[34] = test system: ACHN
[35] = test system: SW-620
[36] = test system: SR
[37] = test system: HT-29
[38] = test system: SF-295
[39] = test system: RPMI-8226
[40] = test system: MDA-MB-435
[41] = test system: IGROV-1
[42] = test system: BT-549
[43] = test system: MDA-N
[44] = test system: HCT-15
[45] = test system: SK-MEL-2
[46] = test system: NCI-H226
[47] = test system: T47D
[48] = test system: UO-31
[49] = test system: K562
[50] = test system: UACC-62
[51] = test system: OVCAR-5
[52] = test system: A498
[53] = test system: CAKI-1
[54] = test system: HOP-62
[55] = test system: DU-145
[56] = test system: NCI/ADR-RES
[57] = test system: MDA-MB-231
[58] = test system: U-251
[59] = test system: TK-10

In the case of `COc1ccc(/C=C2\C[C@H]3[C@@H]4CCC5=CC(=O)CC[C@]5(C)[C@H]4CC[C@]3(C)C2=O)cc1OC`, the GI50 [1] was 8.41 µM (inactive), the GI50 [2] was 5.51 µM (inactive) and the GI50 [3] was 45.8 µM (inactive). The GI50 [4] was 18 µM (inactive), the GI50 [5] was 17.5 µM (inactive) and the GI50 [6] was 4.67 µM (inactive). The GI50 [7] was 0.0627 µM (active), the GI50 [8] was 4.6 µM (inactive) and the GI50 [9] was 14.9 µM (inactive). The GI50 [10] was 2.74 µM (inactive), the GI50 [11] was 3.1 µM (inactive) and the GI50 [12] was 11.9 µM (inactive). For the same compound, the GI50 [13] was 14.4 µM (inactive), the GI50 [14] was 2.19 µM (inactive) and the GI50 [15] was 40 µM (inactive). For the same compound, the GI50 [16] was 40.7 µM (inactive), the GI50 [17] was 8.65 µM (inactive) and the GI50 [18] was > 100 µM (inactive). The GI50 [19] was 2.6 µM (inactive), the GI50 [20] was 13.2 µM (inactive) and the GI50 [21] was 0.279 µM (active). The GI50 [22] was 5.58 µM (inactive), the GI50 [23] was 35.8 µM (inactive) and the GI50 [24] was 6.93 µM (inactive). The GI50 [25] was 44.6 µM (inactive), the GI50 [26] was 8.05 µM (inactive) and the GI50 [27] was 17.6 µM (inactive). For the same compound, the GI50 [28] was 21.8 µM (inactive), the GI50 [29] was > 100 µM (inactive) and the GI50 [30] was 1.37 µM (inactive). The GI50 [31] was 3.44 µM (inactive), the GI50 [32] was 2.46 µM (inactive) and the GI50 [33] was 5.27 µM (inactive). The GI50 [34] was 9.04 µM (inactive), the GI50 [35] was 21.1 µM (inactive) and the GI50 [36] was 2.81 µM (inactive). For the same compound, the GI50 [37] was 6.87 µM (inactive), the GI50 [38] was 0.0635 µM (active) and the GI50 [39] was 3.89 µM (inactive). The GI50 [40] was 5.48 µM (inactive), the GI50 [41] was 10.4 µM (inactive) and the GI50 [42] was 6.34 µM (inactive). For the same compound, the GI50 [43] was 5.94 µM (inactive), the GI50 [44] was 9.25 µM and the GI50 [45] was 4.13 µM (inactive). The GI50 [46] was 11.1 µM (inactive), the GI50 [47] was 3.56 µM (inactive) and the GI50 [48] was 2.42 µM (inactive). The GI50 [49] was 3.8 µM (inactive), the GI50 [50] was 6.24 µM (inactive) and the GI50 [51] was 32.4 µM (inactive). For the same compound, the GI50 [52] was 3.25 µM (inactive), the GI50 [53] was 6.97 µM (inactive) and the GI50 [54] was 0.332 µM (active). For the same compound, the GI50 [55] was 41.2 µM (inactive) and the GI50 [56] was 6.27 µM (inactive).

`COC1(C)/C=N/CC(C)(C)NC(=O)C(C)(OC)/C=N/CC(C)(C)NC1=O` (configuration not stated) was tested, and the GI50 [1] was > 10 µM (inactive), the GI50 [2] was > 10 µM (inactive) and the GI50 [3] was > 10 µM (inactive). The GI50 [4] was > 10 µM (inactive), the GI50 [6] was > 10 µM (inactive) and the GI50 [7] was > 10 µM (inactive). For the same compound, the GI50 [8] was > 10 µM (inactive), the GI50 [9] was > 10 µM (inactive) and the GI50 [10] was 3.53 µM (inactive). For the same compound, the GI50 [11] was > 10 µM (inactive), the GI50 [13] was > 10 µM (inactive) and the GI50 [14] was > 10 µM (inactive). For the same compound, the GI50 [57] was > 10 µM (inactive), the GI50 [15] was > 10 µM (inactive) and the GI50 [16] was > 10 µM (inactive). For the same compound, the GI50 [17] was > 10 µM (inactive), the GI50 [18] was > 10 µM (inactive) and the GI50 [19] was > 10 µM (inactive). The GI50 [20] was > 10 µM (inactive), the GI50 [21] was > 10 µM (inactive) and the GI50 [58] was > 10 µM (inactive). The GI50 [22] was > 10 µM (inactive), the GI50 [23] was > 10 µM (inactive) and the GI50 [25] was > 10 µM (inactive). The GI50 [26] was > 10 µM (inactive), the GI50 [27] was > 10 µM (inactive) and the GI50 [28] was > 10 µM (inactive). The GI50 [29] was > 10 µM (inactive), the GI50 [30] was > 10 µM (inactive) and the GI50 [31] was > 10 µM (inactive). For the same compound, the GI50 [32] was > 10 µM (inactive), the GI50 [33] was > 10 µM (inactive) and the GI50 [59] was > 10 µM (inactive). For the same compound, the GI50 [34] was > 10 µM (inactive), the GI50 [35] was > 10 µM (inactive) and the GI50 [36] was > 10 µM (inactive). The GI50 [37] was > 10 µM (inactive), the GI50 [38] was > 10 µM (inactive) and the GI50 [39] was > 10 µM (inactive). For the same compound, the GI50 [40] was > 10 µM (inactive), the GI50 [41] was > 10 µM (inactive) and the GI50 [42] was > 10 µM (inactive). The GI50 [43] was > 10 µM (inactive), the GI50 [44] was > 10 µM and the GI50 [47] was > 10 µM (inactive). For the same compound, the GI50 [49] was > 10 µM (inactive), the GI50 [50] was > 10 µM (inactive) and the GI50 [53] was > 10 µM (inactive). For the same compound, the GI50 [54] was > 10 µM (inactive), the GI50 [55] was > 10 µM (inactive) and the GI50 [56] was > 10 µM (inactive).
